Reference: PubChem BioAssay (NCI)
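Five concentrations, 48 hours, 96-well plates. TGI is the concentration that stops growth completely.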

Tests used:
Experiment in all cases: NCI tumour cell line growth inhibition, 48 h
HCT-15 colon = tested on: HCT-15 colon
SNB-19 CNS = tested on: SNB-19 CNS
MALME-3M melanoma = tested on: MALME-3M melanoma
HCT-116 colon = tested on: HCT-116 colon
TK-10 renal = tested on: TK-10 renal
UO-31 renal = tested on: UO-31 renal
RXF 393 renal = tested on: RXF 393 renal
SK-MEL-5 melanoma = tested on: SK-MEL-5 melanoma
OVCAR-4 ovarian = tested on: OVCAR-4 ovarian
NCI-H23 lung = tested on: NCI-H23 lung
A498 renal = tested on: A498 renal
UACC-257 melanoma = tested on: UACC-257 melanoma
SNB-75 CNS = tested on: SNB-75 CNS
U251 CNS = tested on: U251 CNS
COLO 205 colon = tested on: COLO 205 colon
SW-620 colon = tested on: SW-620 colon
HT29 colon = tested on: HT29 colon
EKVX NSCLC = tested on: EKVX NSCLC
CCRF-CEM leukemia = tested on: CCRF-CEM leukemia
MCF7 breast = tested on: MCF7 breast

| Compound | TGI (HCT-15 colon) [µM] | TGI (SNB-19 CNS) [µM] | TGI (MALME-3M melanoma) [µM] | TGI (HCT-116 colon) [µM] | TGI (TK-10 renal) [µM] | TGI (UO-31 renal) [µM] | TGI (RXF 393 renal) [µM] | TGI (SK-MEL-5 melanoma) [µM] | TGI (OVCAR-4 ovarian) [µM] | TGI (NCI-H23 lung) [µM] | TGI (A498 renal) [µM] | TGI (UACC-257 melanoma) [µM] | TGI (SNB-75 CNS) [µM] | TGI (U251 CNS) [µM] | TGI (COLO 205 colon) [µM] | TGI (SW-620 colon) [µM] | TGI (HT29 colon) [µM] | TGI (EKVX NSCLC) [µM] | TGI (CCRF-CEM leukemia) [µM] | TGI (MCF7 breast) [µM] |
| --- | --- | --- | --- | --- | --- | --- | --- | --- | --- | --- | --- | --- | --- | --- | --- | --- | --- | --- | --- | --- |
| N#CC(C(=O)c1cccnc1Cl)c1nc2cc(C(F)(F)F)ccc2s1 (configuration not stated) | > 100 | > 100 | > 100 | 90.3 | > 100 | > 100 | > 100 | > 100 | > 100 | > 100 | 87 | > 100 | > 100 | > 100 | > 100 | > 100 | > 100 | > 100 | – | – |
| Nc1nc2c3nc(Nc4ccccc4)sc3nc(=S)n2c2sc(Nc3ccccc3)nc12 | > 100 | > 100 | > 100 | > 100 | – | > 100 | > 100 | > 100 | > 100 | > 100 | > 100 | > 100 | > 100 | > 100 | > 100 | > 100 | > 100 | > 100 | – | – |
| COP(=O)(OC)C(=O)N1N(c2ccc([N+](=O)[O-])cc2)C(=O)C(C)NC1(NNc1ccc([N+](=O)[O-])cc1)P(=O)(OC)OC (configuration not stated) | > 100 | > 100 | > 100 | > 100 | > 100 | > 100 | – | > 100 | > 100 | > 100 | > 100 | > 100 | > 100 | > 100 | > 100 | > 100 | – | > 100 | > 100 | – |
| COc1ccc(C2N(c3ccc(F)cc3)C(=O)N3C(c4ccc(OC)cc4)N(c4ccc(F)cc4)C(=O)N23)cc1 (configuration not stated) | > 100 | > 100 | > 100 | > 100 | > 100 | > 100 | > 100 | > 100 | > 100 | > 100 | > 100 | > 100 | > 100 | > 100 | > 100 | > 100 | > 100 | > 100 | > 100 | – |
| CCN(CC)C(=O)Cc1c(C(=O)N(CC)CC)c(=O)nc2sccn12 | > 100 | > 100 | > 100 | > 100 | > 100 | > 100 | > 100 | – | > 100 | > 100 | > 100 | > 100 | > 100 | > 100 | > 100 | > 100 | > 100 | > 100 | > 100 | – |
| CCCNC(=S)/N=C/c1c(O)cc(C)oc1=O | > 100 | > 100 | – | > 100 | > 100 | > 100 | – | > 100 | > 100 | > 100 | – | > 100 | > 100 | > 100 | > 100 | > 100 | > 100 | > 100 | – | > 100 |
| CNNC1=NS(=O)(=O)c2cc(C#N)c(Cl)cc2S1 | > 10 | > 10 | > 10 | > 10 | > 10 | 3.38 | > 10 | > 10 | > 10 | > 10 | > 10 | > 10 | > 10 | > 10 | > 10 | > 10 | > 10 | > 10 | > 10 | – |
| O=C(c1ccccc1)c1c(CC(O)c2ccccn2)n(C(=O)c2ccccc2)c2ccccc12 (configuration not stated) | 88.1 | > 100 | 46 | 27.8 | > 100 | 67.5 | – | 27.3 | > 100 | 56.3 | – | 43.6 | 43.3 | 58 | 50.5 | > 100 | 30.1 | – | 80.5 | – |
| C[C@@H](c1ccccc1)n1c(N)c(-c2ccccn2)c2ccc([N+](=O)[O-])cc2c1=O | > 100 | > 100 | – | > 100 | > 100 | > 100 | – | > 100 | > 100 | > 100 | 65.5 | > 100 | 63 | > 100 | > 100 | > 100 | > 100 | – | > 100 | – |
| CCN(CC)c1cccc2c1/C(=N/O)CCCC2 | > 100 | > 100 | > 100 | > 100 | > 100 | > 100 | > 100 | > 100 | > 100 | > 100 | – | > 100 | > 100 | > 100 | > 100 | > 100 | > 100 | > 100 | > 100 | – |
| Cc1cc2c(c(C=Nc3ccccc3O)c1)OC1(C=C2)Oc2ccccc2C(=O)N1C (configuration not stated) | 30.9 | > 100 | – | 27.5 | 48 | 31.4 | 37.2 | 36.4 | 60 | 34.6 | 56.1 | 30.8 | 52.3 | 41 | 54.5 | 86.7 | 30.2 | 40.5 | 46.3 | – |
